Laboratory results: US20130209578A1, “Combinatory Cancer Treatment” (UNIVERSITE DE MONTREAL, priority 2010, published 2013)
Entries after “also recorded” stand apart in the source; their conditions may differ.

Columns and labels:
[1] = tested on: THP-1 cells; test: western blot of eIF4E targets, apoptosis and autophagy markers in THP-1 cells; type: cell-based, human; conditions: for HoxA9 protein levels: FIG. 7
[2] = molecular target: T1, eIF4E (Homo sapiens, UniProt P06730); test: 3H ribavirin immunoprecipitation with eIF4E antibodies in FaDu cells; type: binding; conditions: 24 h, 0.66 micromolar 3H ribavirin, formaldehyde cross-linked
T1 construct: endogenous in cells; host or cells: FaDu cells
Source text: Equal amounts of lysate were used for immunoprecipitation with antibodies to eIF4E or IgG controls. After 6 washes (W), beads were eluted in SDS Buffer. ⅕ of volume was used for western blot analysis and the rest for ^3H measurement. […] Input is a positive control showing that eIF4E is present in the cell lysate.
FIG. 3 is a western blot control for FIG. 2. This western blot confirms that antibodies to eIF4E immunoprecipitated eIF4E and that eIF4E was not found in the IgG control immunoprecipitation.

[3] = Assouline et al, Blood 2009; cited from earlier work
[4] = tested on: primary AML specimens; test: colony forming assay in methyl cellulose, primary AML specimens; type: cell-based, human; conditions: Flt3 mutant versus Flt3 wildtype specimens, drug alone
Source text: (§1) FIG. 1 is a table summarizing the results of colony forming assays in methyl cellulose for primary AML specimens (purchased from the BLCQ) or specimens isolated from healthy volunteers (purchased from Stem Cell Technologies). A colony experiment typically runs for 14 days. A special media which supports hematopoietic cell growth was used (Methocult purchased from Stem Cell Technologies). Mutant refers to the presence of a mutation in the Flt3 gene (a common leukemia marker) and wildtype refers to Flt3 not being mutated in this specimen. Each experiment is carried out in quintuplicate with colony number plus/minus standard deviations given. […] Untreated controls were carried out in parallel for every single experiment. Experiments were done on specimens as described.

[5] = tested on: M1 and M2 AML specimens (with normal eIF4E levels); test: methyl-cellulose colony assay, M1 and M2 AML specimens with normal eIF4E; type: cell-based, human; conditions: ribavirin 1 micromolar
Source text: as §1

[6] = tested on: KG-1a cells; test: western blot of eIF4E targets, apoptosis and autophagy markers in KG-1a cells; type: cell-based, human; conditions: for Akt activation / LC3B level and cleavage (autophagy marker) / levels of eIF4E downstream targets XIAP, Mdm2, Mcl-1: KG1 cells; for levels of eIF4E downstream targets XIAP, Mdm2, Mcl-1: ribavirin 10 μM, azacytidine 3 μM
[7] = molecular target: purified eIF4E; conditions: cited from earlier work
[8] = tested on: acute myeloid leukemia (AML); test: phase II clinical trial of ribavirin monotherapy in leukemia (AML) patients, NCT00559091; type: in vivo, human
Source text: Thus, because of its properties, the eukaryotic translation initiation factor, eIF4E, has become an appealing clinical target to treat patients diagnosed with cancer, in particular AML. […] 114, no. 2 (Jul. 9, 2009, Epub 2009 May 11).
In conducting clinical trial no. […] In some patients, monotherapy had no impact. […] In fact, leukemic cells become resistant to nearly all monotherapies within two (2) to four (4) months; such being due to naturally occurring phenomena such as selective evolution (Abboud et al., “Induction therapy for elderly patients with acute myeloid leukemia”, Blood Reviews (2008) 22: 311-320, and Melnick et al., “MDS and secondary AML display unique patterns and abundance of aberrant DNA methylation”, Blood. 2009 Oct. 15; 114(16):3448-58. Epub 2009 Aug. 3). To overcome this issue of resistance, it is not uncommon in the clinical field, and as for most treatments involving a monotherapy, to follow-up this treatment with chemotherapy, as it taught in Abboud et al. (supra) and Melnick et al. (supra). As it is well known, the use of chemotherapeutic agents has many secondary effects on patients, including and not limited to damage of normal cells, anemia, bleeding, constipation, fatigue, hair loss, infections, memory changes, swelling, and even death amongst many others. Conventional chemotherapy also requires a stay at the hospital so as to administer the chemotherapeutic agent(s) as well as supportive care for the side effects. In this connection, Abboud et al., in Blood Reviews (2008, supra), review treatment strategies of patients over 60 (which are the majority of AML patients), diagnosed with AML, and the morbidities and mortalities associated with chemotherapy.
Ribavirin was used extensively as a broad-spectrum anti-viral therapy.

[9] = tested on: M1 AML specimen with elevated eIF4E (M1-high4E); test: methyl-cellulose colony assay, M1 AML specimen with elevated eIF4E; type: cell-based, human; conditions: ribavirin 1 micromolar, azacytidine 3 micromolar
Source text: as §1

T1 sequence (P06730 whole entry): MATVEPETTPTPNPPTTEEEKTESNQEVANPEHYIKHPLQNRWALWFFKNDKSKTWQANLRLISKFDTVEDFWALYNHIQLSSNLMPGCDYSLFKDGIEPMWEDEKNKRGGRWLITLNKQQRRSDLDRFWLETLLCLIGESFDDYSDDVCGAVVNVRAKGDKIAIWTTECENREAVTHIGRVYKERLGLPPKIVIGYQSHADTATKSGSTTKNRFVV

Compound	HoxA9 protein levels [1]	mdm2 protein level (eIF4E mRNA export target) ([1]; THP-1 cells, 48 hours)	binding of 3H ribavirin to eIF4E in living cells [2]	concentration in plasma from patients [3] [µM]	dependence of the effect on colony growth on Flt3 status [4]	colonies versus untreated cells [5]	drop in colonies versus untreated cells [5] [%]	Akt activation [6]	LC3B level and cleavage (autophagy marker) [6]	levels of eIF4E downstream targets XIAP, Mdm2, Mcl-1 [6]	eIF4E protein levels ([6]; KG-1a and THP-1 cells, ribavirin 48 hours)	mdm2 protein level (eIF4E mRNA export target) ([6]; KG-1a cells, 48 hours)	Kd ([7]; Kentsis 2004, read-out: affinity constant for eIF4E) [nM]	Kd for purified eIF4E in vitro ([7]; Kentsis et al. 2004)	clinical response of patients ([8]; Canada-wide clinical trial)	resistance to monotherapy in patients ([8]; clinical trial no. NCT00559091)	eIF4E protein (and RNA) levels in patients ([8]; phase II clinical trial, ribavirin monotherapy)	levels of eIF4E downstream targets XIAP, mdm2, Mcl-1 ([1]; THP-1 cells)	levels of NFkappaB subunit p65 ([6]; FIG. 6)	colonies versus untreated controls [9]
NC(=O)c1ncn([C@@H]2O[C@H](CO)[C@@H](O)[C@H]2O)n1 [ribavirin, 1-[(2R,3R,4S,5R)-3,4-dihydroxy-5-(hydroxymethyl)oxolan-2-yl]-1H-1,2,4-triazole-3-carboxamide]	does not reverse this	downregulated	binds directly to eIF4E in living cells; also recorded: eIF4E binds ^3H ribavirin	10 to 20	independent of Flt3 status	70-80%	~25	reduces Akt activation	elevated LC3B levels	reduced the expression	do not change	downregulated	~1000	low micromolar range	striking improvement	most if not all patients became resistant; also recorded: all eventually developed resistance	downregulation			
Nc1ncn([C@@H]2O[C@H](CO)[C@@H](O)[C@H]2O)c(=O)n1 [azacytidine, 4-amino-1-β-D-ribofuranosyl-1,3,5-triazin-2(1H)-one]	elevates				independent of Flt3 status			leads to Akt activation	increases the total amount of LC3B protein	gross increase; also recorded: upregulated								upregulated; also recorded: elevated	elevated	about 80%
